Data: paper PMC8286840, “Identifying SARS-CoV-2 antiviral compounds by screening for small molecule inhibitors of Nsp3 papain-like protease” (Biochemical Journal, 2021)
Where a name gives a salt, the structure may show the parent alone. Read-outs that look alike come from different tables or passages of the source.

What was measured:
[1] = target: T1, SARS-CoV-2 PLpro (nsp3 1564–1878) (Severe acute respiratory syndrome coronavirus 2, UniProt P0DTD1); test: biochemical; parameters: FRET-quenched peptide (Pro3) cleavage by PLpro, 10 min pre-incubation, slope over 20 min, normalised to no-compound control; settings: read-out: % of control remaining
[2] = target: T1, SARS-CoV-2 PLpro (nsp3 1564–1878); test: biochemical; parameters: FRET-quenched peptide (Pro3) cleavage by PLpro, 10 min pre-incubation, slope over 20 min, normalised to no-compound control; settings: read-out: % of control remaining; remark: listed apart in the source

COc1cc2c(cc1OC)CN(C(=O)[C@@H](NCc1ccncc1)C(C)(C)C)CC2 [TCS-OX2-29]
remaining activity at 3.75 µM ([1]; Well no.=6993, high concentration screen): 101% | remaining activity at 1.25 µM ([2]; Well no.=6993, low concentration screen): 107%

CC1(C)CC(O)CC(C)(C)N1[O] [TEMPOL]
remaining activity at 3.75 µM [1]: 95.9% | remaining activity at 1.25 µM [2]: 93.1%

CC1(C)CCCC(C)(C)N1[O] [TEMPO]
remaining activity at 3.75 µM [1]: 99.1% | remaining activity at 1.25 µM [2]: 95.5%

CCSC(N)=Nc1ccc(C(F)(F)F)cc1 [TFPI hydrochloride]
remaining activity at 3.75 µM ([1]; Well no.=1389, high concentration screen): 93.8% | remaining activity at 1.25 µM ([2]; Well no.=1389, low concentration screen): 95.8%

Nc1nc(N)c2nc(-c3cccc(O)c3)c(-c3cccc(O)c3)nc2n1 [TG100-115]
remaining activity at 3.75 µM ([1]; Well no.=4846, high concentration screen): 99.1% | remaining activity at 1.25 µM ([2]; Well no.=4846, low concentration screen): 99.1%

Cc1cnc(Nc2ccc(N3CCN(C)CC3)cc2)nc1Nc1cccc(S(=O)(=O)NC(C)(C)C)c1 [TG101209]
remaining activity at 3.75 µM ([1]; Well no.=2805, high concentration screen): 96.7% | remaining activity at 1.25 µM ([2]; Well no.=2805, low concentration screen): 94%

Cc1cnc(Nc2ccc(OCCN3CCCC3)cc2)nc1Nc1cccc(S(=O)(=O)NC(C)(C)C)c1 [TG101348]
remaining activity at 3.75 µM ([1]; Well no.=2853, high concentration screen): 98.3% | remaining activity at 1.25 µM ([2]; Well no.=2853, low concentration screen): 95.4%

O=c1[nH]oc2c1CCNC2 [THIP hydrochloride]
remaining activity at 3.75 µM ([1]; Well no.=1328, high concentration screen): 97.2% | remaining activity at 1.25 µM ([2]; Well no.=1328, low concentration screen): 96.3%

Cc1ccccc1CN1C(=O)C2=C(CCN(Cc3ccccc3)C2)N2CCN=C12 [TIC10]
remaining activity at 3.75 µM [1]: 96.2% | remaining activity at 1.25 µM [2]: 97.7%

Cc1cc(COc2nc(N)nc3ccn(Cc4ccccn4)c23)no1 [TLR7 agonist 2]
remaining activity at 3.75 µM ([1]; Well no.=8227, high concentration screen): 103% | remaining activity at 1.25 µM ([2]; Well no.=8227, low concentration screen): 106%

CCCCc1nc2c(N)nc3ccccc3c2n1Cc1ccc(CN)cc1 [TLR7/8 agonist 1 (dihydrochloride)]
remaining activity at 3.75 µM ([1]; Well no.=8259, high concentration screen): 99.6% | remaining activity at 1.25 µM ([2]; Well no.=8259, low concentration screen): 102%

O=C(COCC(=O)Nc1ccc(Cl)cc1C(=O)O)Nc1cccc(-c2ccoc2)c1 [TM5441]
remaining activity at 3.75 µM ([1]; Well no.=6540, high concentration screen): 105% | remaining activity at 1.25 µM ([2]; Well no.=6540, low concentration screen): 109%

CCN(CC)CCCCCCCCOC(=O)c1cc(OC)c(OC)c(OC)c1 [TMB-8 hydrochloride]
remaining activity at 3.75 µM ([1]; Well no.=101, high concentration screen): 104% | remaining activity at 1.25 µM ([2]; Well no.=101, low concentration screen): 104%

CP(=O)(O)C1=CCNCC1 [TPMPA]
remaining activity at 3.75 µM ([1]; Well no.=1474, high concentration screen): 102% | remaining activity at 1.25 µM ([2]; Well no.=1474, low concentration screen): 100%

COc1cccc(OC)c1-c1ccc(C[C@H](NC(=O)c2c(Cl)cccc2Cl)C(=O)O)cc1 [TR-14035]
remaining activity at 3.75 µM ([1]; Well no.=8514, high concentration screen): 93.8% | remaining activity at 1.25 µM ([2]; Well no.=8514, low concentration screen): 96.3%

Clc1ccccc1C(c1ccccc1)(c1ccccc1)n1cccn1 [TRAM-34]
remaining activity at 3.75 µM ([1]; Well no.=4707, high concentration screen): 103% | remaining activity at 1.25 µM ([2]; Well no.=4707, low concentration screen): 107%

CC(C)C[C@H](NC(=O)[C@H](CC(C)C)NC(=O)[C@H](Cc1ccccc1)NC(=O)[C@@H](N)CO)C(=O)N[C@@H](CCCN=C(N)N)C(=O)N[C@@H](CC(N)=O)C(=O)O [TRAP-6]
remaining activity at 3.75 µM ([1]; Well no.=6278, high concentration screen): 103% | remaining activity at 3.75 µM ([1]; Well no.=8364, high concentration screen): 97.2% | remaining activity at 1.25 µM ([2]; Well no.=6278, low concentration screen): 101% | remaining activity at 1.25 µM ([2]; Well no.=8364, low concentration screen): 98.5%

COC(=O)[C@H](Cc1c[nH]c2ccccc12)N(Cc1ccccc1)Cc1ccccc1 [TRPM8 antagonist 2]
remaining activity at 3.75 µM ([1]; Well no.=7732, high concentration screen): 97.5% | remaining activity at 1.25 µM ([2]; Well no.=7732, low concentration screen): 95.3%

Cc1[nH]c(/C=C2\C(=O)Nc3ccccc32)c(C)c1CCC(=O)O [TSU-68 (SU6668)]
remaining activity at 3.75 µM ([1]; Well no.=4899, high concentration screen): 95.8% | remaining activity at 1.25 µM ([2]; Well no.=4899, low concentration screen): 99.4%

C/C(=C\c1ccc(C(=O)O)cc1)c1ccc2c(c1)C(C)(C)CCC2(C)C [TTNPB]
remaining activity at 3.75 µM ([1]; Well no.=1429, high concentration screen): 99.8% | remaining activity at 3.75 µM ([1]; Well no.=4436, high concentration screen): 100% | remaining activity at 1.25 µM ([2]; Well no.=1429, low concentration screen): 97.8% | remaining activity at 1.25 µM ([2]; Well no.=4436, low concentration screen): 93%

C#CCN[C@@H]1CCc2ccccc21 [TVP1022]
remaining activity at 3.75 µM ([1]; Well no.=5527, high concentration screen): 112% | remaining activity at 1.25 µM ([2]; Well no.=5527, low concentration screen): 101%

Nc1cccc(-c2cc3c(Oc4cccc(O)c4)ncnc3[nH]2)c1 [TWS119]
remaining activity at 3.75 µM ([1]; Well no.=4612, high concentration screen): 99.7% | remaining activity at 1.25 µM ([2]; Well no.=4612, low concentration screen): 100%

Cc1cc(C=C2C(=O)C=CC2=O)cc(C)c1O [TX-1918]
remaining activity at 3.75 µM ([1]; Well no.=2677, high concentration screen): 98.1% | remaining activity at 1.25 µM ([2]; Well no.=2677, low concentration screen): 96.7%

CC(C)(C)C(=O)C(=Nc1ccc(Cl)cc1)NNc1ccc(Cl)cc1 [TY-52156]
remaining activity at 3.75 µM ([1]; Well no.=7819, high concentration screen): 104% | remaining activity at 1.25 µM ([2]; Well no.=7819, low concentration screen): 105%

C=CC[C@@H]1/C=C(\C)C[C@H](C)C[C@H](OC)[C@H]2O[C@@](O)(C(=O)C(=O)N3CCCC[C@H]3C(=O)O[C@H](/C(C)=C/[C@@H]3CC[C@@H](O)[C@H](OC)C3)[C@H](C)[C@@H](O)CC1=O)[C@H](C)C[C@@H]2OC [Tacrolimus (monohydrate)]
remaining activity at 3.75 µM ([1]; Well no.=6306, high concentration screen): 93.9% | remaining activity at 3.75 µM ([1]; Well no.=7308, high concentration screen): 107% | remaining activity at 1.25 µM ([2]; Well no.=6306, low concentration screen): 96.8% | remaining activity at 1.25 µM ([2]; Well no.=7308, low concentration screen): 104%

CN1CC(=O)N2[C@H](c3ccc4c(c3)OCO4)c3[nH]c4ccccc4c3C[C@@H]2C1=O [Tadalafil]
remaining activity at 3.75 µM ([1]; Well no.=8188, high concentration screen): 95.9% | remaining activity at 1.25 µM ([2]; Well no.=8188, low concentration screen): 95%

CC(=O)N1N=C(c2ccc(N)cc2)c2cc3c(cc2C[C@H]1C)OCO3 [Talampanel]
remaining activity at 3.75 µM ([1]; Well no.=5791, high concentration screen): 97.1% | remaining activity at 3.75 µM ([1]; Well no.=6496, high concentration screen): 99.6% | remaining activity at 1.25 µM ([2]; Well no.=5791, low concentration screen): 97.9% | remaining activity at 1.25 µM ([2]; Well no.=6496, low concentration screen): 96.3%

C[C@@H]1CN(Cc2ccc(F)cc2)[C@@H](C)CN1C(=O)c1cc2c(C(=O)C(=O)N(C)C)cn(C)c2cc1Cl [Talmapimod]
remaining activity at 3.75 µM ([1]; Well no.=7304, high concentration screen): 91.9% | remaining activity at 1.25 µM ([2]; Well no.=7304, low concentration screen): 99.8%

CC[C@H](NC(=O)c1c(O)c(-c2ccccc2)nc2ccccc12)c1ccccc1 [Talnetant]
remaining activity at 3.75 µM ([1]; Well no.=5814, high concentration screen): 97.8% | remaining activity at 3.75 µM ([1]; Well no.=8479, high concentration screen): 100% | remaining activity at 1.25 µM ([2]; Well no.=5814, low concentration screen): 97.3% | remaining activity at 1.25 µM ([2]; Well no.=8479, low concentration screen): 104%

CC1(C)CCC(C)(C)c2cc(NC(=O)c3ccc(C(=O)O)cc3)ccc21 [Tamibarotene]
remaining activity at 3.75 µM ([1]; Well no.=8108, high concentration screen): 101% | remaining activity at 1.25 µM ([2]; Well no.=8108, low concentration screen): 97.6%

Nc1nc(-n2cccn2)nc(-n2cccn2)c1Br [Taminadenant]
remaining activity at 3.75 µM ([1]; Well no.=8565, high concentration screen): 90.5% | remaining activity at 1.25 µM ([2]; Well no.=8565, low concentration screen): 99.5%

CC/C(=C(\c1ccccc1)c1ccc(OCCN(C)C)cc1)c1ccccc1 [Tamoxifen citrate]
remaining activity at 3.75 µM ([1]; Well no.=1184, high concentration screen): 99.3% | remaining activity at 1.25 µM ([2]; Well no.=1184, low concentration screen): 97.1%

CC/C(=C(\c1ccccc1)c1ccc(OCCN(C)C)cc1)c1ccccc1 [Tamoxifen]
remaining activity at 3.75 µM ([1]; Well no.=2240, high concentration screen): 93.3% | remaining activity at 1.25 µM ([2]; Well no.=2240, low concentration screen): 90.7%

CCOc1ccccc1OCCN[C@H](C)Cc1ccc(OC)c(S(N)(=O)=O)c1 [Tamsulosin]
remaining activity at 3.75 µM ([1]; Well no.=2295, high concentration screen): 95.1% | remaining activity at 3.75 µM ([1]; Well no.=7386, high concentration screen): 94.5% | remaining activity at 1.25 µM ([2]; Well no.=2295, low concentration screen): 95% | remaining activity at 1.25 µM ([2]; Well no.=7386, low concentration screen): 98.7%
